Assays:
[1] = tested on: wildtype Wnt signaling cascade; assay: HEK293 TOP Assay (Super TopFlash luciferase reporter, Wnt-3a stimulated); type: cell-based; settings: Homo sapiens, HEK293, 16 h, HEK293 TOP reporter cell line, Wnt-3a at EC50, 16 hours incubation, compound dilution series 50 μM to 15 nM
In short: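 HEK293 cells stably carrying Super TopFlash (TOP) or FOP reporter, stimulated with recombinant human Wnt-3a (2500–5 ng/ml, two-fold steps). Both lines incubated in parallel with compound from 50 μM to 15 nM (3.16-fold) in CAFTY buffer pH 7.4 with 2 mM Ca2+ and 0.01% BSA; selectivity judged TOP vs FOP.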

[2] = target: T1, TNKS2 (Homo sapiens, UniProt Q9H2K2); assay: Modified TNKS2 Assay 3 (BPS kit #80578, biotin-NAD+, 96 well); type: biochemical; settings: human TNKS2, BPS kit #80578, 96 well
T1 sequence (Q9H2K2 1-1166): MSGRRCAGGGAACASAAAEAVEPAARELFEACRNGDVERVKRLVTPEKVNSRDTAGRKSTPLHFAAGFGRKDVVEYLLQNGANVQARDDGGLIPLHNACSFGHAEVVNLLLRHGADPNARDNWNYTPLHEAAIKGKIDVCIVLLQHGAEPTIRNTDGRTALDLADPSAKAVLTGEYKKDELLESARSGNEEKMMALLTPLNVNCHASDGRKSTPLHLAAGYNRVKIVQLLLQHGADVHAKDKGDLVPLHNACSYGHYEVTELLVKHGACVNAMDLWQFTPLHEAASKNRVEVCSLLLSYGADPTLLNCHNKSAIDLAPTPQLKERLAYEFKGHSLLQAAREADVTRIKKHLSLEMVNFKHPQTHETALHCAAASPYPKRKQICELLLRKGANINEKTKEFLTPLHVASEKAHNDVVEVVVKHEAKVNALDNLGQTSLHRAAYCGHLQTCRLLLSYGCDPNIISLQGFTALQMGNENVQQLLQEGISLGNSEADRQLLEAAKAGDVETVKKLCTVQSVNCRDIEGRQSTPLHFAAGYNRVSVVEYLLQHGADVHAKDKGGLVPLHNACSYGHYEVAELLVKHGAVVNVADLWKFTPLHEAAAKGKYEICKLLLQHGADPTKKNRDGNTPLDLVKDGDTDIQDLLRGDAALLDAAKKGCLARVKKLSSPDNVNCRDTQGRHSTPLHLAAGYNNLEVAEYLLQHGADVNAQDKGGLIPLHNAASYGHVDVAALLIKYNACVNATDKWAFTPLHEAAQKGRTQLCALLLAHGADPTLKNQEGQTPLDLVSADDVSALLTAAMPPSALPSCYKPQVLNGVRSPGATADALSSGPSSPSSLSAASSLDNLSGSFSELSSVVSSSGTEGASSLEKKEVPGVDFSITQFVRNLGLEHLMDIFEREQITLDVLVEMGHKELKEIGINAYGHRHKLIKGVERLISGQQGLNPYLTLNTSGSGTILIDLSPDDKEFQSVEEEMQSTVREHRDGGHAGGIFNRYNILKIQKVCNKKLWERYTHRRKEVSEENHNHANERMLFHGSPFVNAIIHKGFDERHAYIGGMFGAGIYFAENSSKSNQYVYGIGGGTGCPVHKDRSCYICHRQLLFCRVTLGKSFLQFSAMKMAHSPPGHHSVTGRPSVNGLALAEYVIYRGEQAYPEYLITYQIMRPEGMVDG
In short: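 Commercial kit assay measuring TNKS2-catalysed incorporation of biotin-labelled NAD+ into a protein substrate, detected by streptavidin-HRP chemiluminescence. Run per manufacturer's protocol; IC50 is the concentration halving the normalised signal.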

Row | IC50 [1] | IC50 [2] | Compound
1 | 990 nM | 3 nM | CC(C)NCCNC(=O)c1[nH]cnc1C(=O)Nc1ccc(NC(=O)c2ccc(F)cc2Cl)cc1 [Example 288, N^4-{4-[(2-chloro-4-fluorobenzoyl)amino]phenyl}-N^5-[2-(isopropylamino)ethyl]-1H-imidazole-4,5-dicarboxamide]
2 | 70 nM | 20 nM | O=C(Nc1ccc(NC(=O)c2nc[nH]c2C(=O)NCCN2CC[C@@H](F)C2)cc1)c1ccc(F)cc1Cl [Example 231, N^4-{4-[(2-chloro-4-fluorobenzoyl)amino]phenyl}-N^5-{2-[(3R)-3-fluoropyrrolidin-1-yl]ethyl}-1H-imidazole-4,5-dicarboxamide]
3 | 2550 nM |  | CNC(=O)c1nc[nH]c1C(=O)Nc1ccc(NC(=O)c2ccccc2Cl)nc1 [Example 112, N^5-{6-[(2-chlorobenzoyl)amino]pyridin-3-yl}-N^4-methyl-1H-imidazole-4,5-dicarboxamide]
4 | 290 nM | 9 nM | O=C(Nc1ccc(NC(=O)c2nc[nH]c2C(=O)NCCCN2CCCC2)cc1)c1ccc(F)cc1Cl [Example 274, N^4-{4-[(2-chloro-4-fluorobenzoyl)amino]phenyl}-N^5-[3-(pyrrolidin-1-yl)propyl]-1H-imidazole-4,5-dicarboxamide]
5 | 90 nM | 0.7 nM | CCN1CCC[C@H]1CNC(=O)c1nc[nH]c1C(=O)Nc1ccc(NC(=O)c2ccc(F)cc2Cl)cc1 [Example 404, N^5-{4-[(2-chloro-4-fluorobenzoyl)amino]phenyl}-N^4-{[(2S)-1-ethylpyrrolidin-2-yl]methyl}-1H-imidazole-4,5-dicarboxamide]
6 | 240 nM | 150 nM | O=C(Nc1ccc(NC(=O)c2nc[nH]c2C(=O)NCC2CCOC2)cc1)c1ccc(F)cc1Cl (stereo not shown) [Example 235, N^4-{4-[(2-chloro-4-fluorobenzoyl)amino]phenyl}-N^5-(tetrahydrofuran-3-ylmethyl)-1H-imidazole-4,5-dicarboxamide]
7 | 220 nM | 10 nM | COc1cc(NC(=O)c2[nH]cnc2C(=O)NCCN2CCCCC2)ccc1NC(=O)c1ccccc1Cl [Example 101, N^5-{4-[(2-chlorobenzoyl)amino]-3-methoxyphenyl}-N^4-[2-(piperidin-1-yl)ethyl]-1H-imidazole-4,5-dicarboxamide]
8 | 1250 nM | 70 nM | O=C(Nc1ccc(NC(=O)c2nc[nH]c2C(=O)NCCN2CCC(F)(F)CC2)cc1)c1ccccc1Cl [Example 214, N^4-{4-[(2-chlorobenzoyl)amino]phenyl}-N^5-[2-(4,4-difluoropiperidin-1-yl)ethyl]-1H-imidazole-4,5-dicarboxamide]
9 | 1050 nM | 30 nM | CC(C)(N)CNC(=O)c1[nH]cnc1C(=O)Nc1ccc(NC(=O)c2ccc(F)cc2Cl)cc1 [Example 280, N^5-(2-amino-2-methylpropyl)-N^4-{4-[(2-chloro-4-fluorobenzoyl)amino]phenyl}-1H-imidazole-4,5-dicarboxamide]
10 | 5000 nM | > 500 nM | CC(C)c1nc(C(=O)Nc2ccc(NC(=O)c3ccc(F)cc3Cl)cc2)c(C(=O)NCCN2CCCCC2)[nH]1 [Example 108, N^4-{4-[(2-chloro-4-fluorobenzoyl)amino]phenyl}-2-isopropyl-N^5-[2-(piperidin-1-yl)ethyl]-1H-imidazole-4,5-dicarboxamide]
11 | 50000 nM |  | COC(=O)c1nc[nH]c1C(=O)Nc1ccc(NC(=O)c2ccc(F)cc2)c(OC)c1 [Example 102, methyl 5-({4-[(4-fluorobenzoyl)amino]-3-methoxyphenyl}carbamoyl)-1H-imidazole-4-carboxylate]
12 | 27000 nM |  | CNC(=O)c1[nH]c(C(C)C)nc1C(=O)Nc1ccc(NC(=O)c2ccc(F)cc2Cl)cc1 [Example 106, N^4-{4-[(2-chloro-4-fluorobenzoyl)amino]phenyl}-2-isopropyl-N^5-methyl-1H-imidazole-4,5-dicarboxamide]
13 | 790 nM |  | COc1cc(NC(=O)c2[nH]cnc2C(=O)NCCN(C)C)ccc1NC(=O)c1ccccc1Cl [Example 100, N^5-{4-[(2-chlorobenzoyl)amino]-3-methoxyphenyl}-N^4-[2-(dimethylamino)ethyl]-1H-imidazole-4,5-dicarboxamide]
14 | 460 nM |  | CN(C)CCNC(=O)c1nc[nH]c1C(=O)Nc1ccc(NC(=O)c2ccccc2Cl)nc1 [Example 113, N^5-{6-[(2-chlorobenzoyl)amino]pyridin-3-yl}-N^4-[2-(dimethylamino)ethyl]-1H-imidazole-4,5-dicarboxamide]

The next lines start with the compound.

Row | Compound | IC50 [1] | IC50 [2]
15 | CNC(=O)c1[nH]c(C)nc1C(=O)Nc1ccc(NC(=O)c2ccc(F)cc2Cl)cc1 [Example 65, N^4-{4-[(2-chloro-4-fluorobenzoyl)amino]phenyl}-N^5,2-dimethyl-1H-imidazole-4,5-dicarboxamide] | 800 nM | 360 nM
16 | O=C(Nc1ccc(NC(=O)c2[nH]cnc2C(=O)NCCC2CC2)cc1)c1cc(F)c(F)cc1Cl [Example 49, N^5-{4-[(2-chloro-4,5-difluorobenzoyl)amino]phenyl}-N^4-(2-cyclopropylethyl)-1H-imidazole-4,5-dicarboxamide] | 350 nM | > 500 nM
17 | CCc1nc(C(=O)Nc2ccc(NC(=O)c3ccc(F)cc3Cl)cc2)c(C(=O)NCCN2CCCCC2)[nH]1 [Example 70, N^4-{4-[(2-chloro-4-fluorobenzoyl)amino]phenyl}-2-ethyl-N^5-[2-(piperidin-1-yl)ethyl]-1H-imidazole-4,5-dicarboxamide] | 130 nM | 20 nM
18 | O=C(Nc1ccc(NC(=O)c2[nH]cnc2C(=O)NCCN2CCCCC2)cc1F)c1ccc(F)cc1Cl [Example 74, N^5-{4-[(2-chloro-4-fluorobenzoyl)amino]-3-fluorophenyl}-N^4-[2-(piperidin-1-yl)ethyl]-1H-imidazole-4,5-dicarboxamide] | 70 nM | < 0.5 nM
19 | O=C(Nc1ccc(NC(=O)c2[nH]cnc2C(=O)NCCN2CCCCC2)cc1F)c1ccccc1Cl [Example 82, N^5-{4-[(2-chlorobenzoyl)amino]-3-fluorophenyl}-N^4-[2-(piperidin-1-yl)ethyl]-1H-imidazole-4,5-dicarboxamide] | 90 nM | < 0.5 nM
20 | O=C(Nc1ccc(NC(=O)c2[nH]cnc2C(=O)NCCN2CCCCC2)cc1)c1cc(OC(F)(F)F)ccc1Br [Example 63, N^5-(4-{[2-bromo-5-(trifluoromethoxy)benzoyl]amino}phenyl)-N^4-[2-(piperidin-1-yl)ethyl]-1H-imidazole-4,5-dicarboxamide] | 110 nM | 4 nM
21 | COC(=O)c1nc[nH]c1C(=O)Nc1ccc(NC(=O)c2ccccc2Cl)c(OC)c1 [Example 98, methyl 5-({4-[(2-chlorobenzoyl)amino]-3-methoxyphenyl}carbamoyl)-1H-imidazole-4-carboxylate] | 1150 nM | 
22 | COC(=O)c1nc[nH]c1C(=O)Nc1ccc(NC(=O)c2ccc(F)cc2Cl)c(OC)c1 [Example 94, methyl 5-({4-[(2-chloro-4-fluorobenzoyl)amino]-3-methoxyphenyl}carbamoyl)-1H-imidazole-4-carboxylate] | 830 nM | 
23 | Cc1cc(NC(=O)c2[nH]cnc2C(=O)NCCN2CCCCC2)ccc1NC(=O)c1ccccc1Cl [Example 89, N^5-{4-[(2-chlorobenzoyl)amino]-3-methylphenyl}-N^4-[2-(piperidin-1-yl)ethyl]-1H-imidazole-4,5-dicarboxamide] | 600 nM | 
24 | COc1cc(NC(=O)c2[nH]cnc2C(=O)NCCN(C)C)ccc1NC(=O)c1ccc(F)cc1Cl [Example 96, N^5-{4-[(2-chloro-4-fluorobenzoyl)amino]-3-methoxyphenyl}-N^4-[2-(dimethylamino)ethyl]-1H-imidazole-4,5-dicarboxamide] | 310 nM | 
25 | COC(=O)c1nc[nH]c1C(=O)Nc1ccc(NC(=O)c2ccccc2Cl)c(C)c1 [Example 86, methyl-5-({4-[(2-chlorobenzoyl)amino]-3-methylphenyl}carbamoyl)-1H-imidazole-4-carboxylate] | 420 nM | 
